Experimental data from patent US12161829B2 (OCON MEDICAL LTD., priority 2020, dated 2024).

Tested on: endometrium
Description: Efforts were made to recruit an equal number of women with high endometrial thickness (>7 mm) and low endometrial thickness (<7 mm). On the day of surgery, the subject underwent a vaginal ultrasound, to re-measure the endometrial thickness, and hysteroscopy, to visualize the uterine cavity and the endometrium.
After surgery, the extracted uterus was immediately evaluated by the study pathologist for gross pathology and silver nitrate coverage of the endometrium and was later subjected to pathology (macroscopic analyses of the intra-uterine cavity and microscopic analyses of the multiple sections of the uteri) histopathological evaluations to define the extent of active material endometrium coverage and endometrial ablation.

SMILES: O=[N+]([O-])[O-].[Ag+] [silver nitrate]
- Staining of / spillage via the fallopian tubes (30 minutes in uterus, extracted uterus): No staining of the fallopian tubes
- Cervix findings (histology): superficial silver nitrate staining, with no damage to the columnar epithelium and no pathological findings
- Cauterization effect (overall conclusion): elicited the expected cauterization effect
